The text below walks through data of patent US12497403B2, “Factor XIa inhibitors” (Merck Sharp & Dohme LLC, priority 2021, dated 2025).

Series [1] has as its target human Factor XIa (Homo sapiens, UniProt P03951). Kind of series: Factor XIa assay. In kind it is biochemical. The note with it: human Factor XIa 0.04 nM, GPR-AFC substrate, 25° C., pH 7.4; read-out: FXIa IC50. The protocol:
(§1) The effectiveness of a compound of the present invention as an inhibitor of Coagulation Factor XIa can be determined using a relevant purified serine protease, and an appropriate synthetic substrate. The rate of hydrolysis of the chromogenic or fluorogenic substrate by the relevant serine protease was measured both in the absence and presence of compounds of the present invention. Assays were conducted at room temperature or at 37° C. […] A decrease in the rate of fluorescence change in the presence of inhibitor is indicative of enzyme inhibition. Such methods are known to one skilled in the art. The results of this assay are expressed as the half-maximal inhibitory concentrations (IC50), or the inhibitory constant, Ki.
Compounds were pre-incubated for 30 minutes at 25° C. with human (0.04 nM) Factor XIa in 50 mM HEPES buffer with 150 mM sodium chloride, 5 mM calcium chloride, 0.1% PEG 8000, pH 7.4. Factor XIa enzymatic activity was determined by addition of the substrate glycine-proline-arginine-7-amido-4-trifluoromethylcoumarin (GPR-AFC) and measurement of the fluorescence at 400/505 nm after a 60 minute incubation at 25° C. The % inhibition for each data point was calculated from the data and analyzed using the log (inhibitor) vs. response four parameters equation to determine the half-maximal inhibitory concentrations (IC50). The IC50 were converted to equilibrium inhibitory constants (Ki) using the Cheng-Prusoff equation.

Series [2] concerns the target T1, Human plasma kallikrein (Homo sapiens, UniProt P03952).
T1 construct: yields a heavy chain (371 amino acids) and a light chain (248 amino acids); purchased Enzyme Research Laboratories
Kind of series: Kallikrein assay (plasma kallikrein). In kind it is biochemical. As to conditions: purified Human plasma kallikrein 0.5 nM, Acetyl-K-P-R-AFC substrate, pH 7.4; read-out: pKal IC50. The protocol:
as §1, with “Kallikrein” for “Coagulation Factor XIa”, “constant.” for “constant,”
Kallikrein determinations were made in 50 mM HEPES buffer at pH 7.4 containing 150 mM NaCl, 5 mM CaCl2, and 0.1% PEG 8000 (polyethylene glycol; Fisher Scientific). Determinations were made using purified Human plasma kallikrein at a final concentration of 0.5 nM (Enzyme Research Laboratories) and the synthetic substrate. Acetyl-K-P-R-AFC (Sigma # C6608) at a concentration of […].
Activity assays were performed by diluting a stock solution of substrate at least tenfold to a final concentration≤ 0.2 Km into a solution containing enzyme or enzyme equilibrated with inhibitor. Times required to achieve equilibration between enzyme and inhibitor were determined in control experiments. The reactions were performed under linear progress curve conditions and fluorescence increase measured at 405 Ex/510 Em nm. Values were converted to percent inhibition of the control reaction (after subtracting 100% Inhibition value). IC50 was determined by inflection point from a four parameter logistic curve fit. Ki was calculated using the Cheng Prusoff equation. Ki=IC50/(1+([S]/Km)).

Series [3] in a line: High-throughput (HT) solubility determination. As to conditions: kinetic from dmso stock. In kind it is physicochemical. On the procedure:
The chromatographic system consists of an Agilent 1290 UPLC/DAD system and ChemStation software, both from Agilent Technologies, USA. The separations are carried out on a Supelco Ascentis Express C18, 30 mm×3.0 mm I.D., 2.7 μm HPLC column. The mobile phase consists of Potassium phosphate buffered at pH 7 (mobile phase A) and acetonitrile (mobile phase B). The column oven temperature is set to 30° C. and the UPLC analysis consists of a gradient. The injection volume is 2 μL and the spectrophotometric detection is set to 215 and 238 nm.
A 10 mM stock solution of the compound in DMSO is supplied for analysis. 2.5 μL of stock solution (10 mM) was diluted into 247.5 μL of organic co-solvents (10% MeCN/80% MeOH/10% DMSO, v/v/v) to create a standard solution of 100 μM. To create the solubility solutions, 4.1 μL of 10 mM DMSO stock solution was diluted into […] of phosphate buffered saline (PBS) (pH 7) solution. A second 4.1 μL aliquot of 10 mM DMSO stock solution was added to 196 μL of PBS (pH 2) solution. A third 4.1 uL aliquot of 10 mM DMSO stock solution was added to 196 uL of FaSSIF (pH 6.5) solution. […] The equilibrated solubility solutions were filtered by centrifugation using a filter (0.45 μm, polypropylene). 50 μL each of the 100 μM standard solution and the filtered equilibrated solubility solutions were placed into a 384 well plate, and the plate was subsequently heat sealed.
Each standard and solubility solution was analyzed by UPLC/DAD. The solubility value was calculated by the following equation: Solubility=(Peak area of sample/Peak area of standard) (Standard concentration)

Where [4] appears, read: FaSSIF pH 6.5, shaken 24 hours at 25° C., read-out: pH 6.5 (FaSSIF) solubility.
[5] abbreviates: phosphate buffered saline (PBS) pH 2, aqueous buffer, PBS pH 2, shaken 24 hours at 25° C., read-out: pH 2 solubility.

Converted amounts (≈) assume the structure as drawn. Where two headings read alike, the source gives them in different places.

T1 sequence (P03952 391-638 limits assumed): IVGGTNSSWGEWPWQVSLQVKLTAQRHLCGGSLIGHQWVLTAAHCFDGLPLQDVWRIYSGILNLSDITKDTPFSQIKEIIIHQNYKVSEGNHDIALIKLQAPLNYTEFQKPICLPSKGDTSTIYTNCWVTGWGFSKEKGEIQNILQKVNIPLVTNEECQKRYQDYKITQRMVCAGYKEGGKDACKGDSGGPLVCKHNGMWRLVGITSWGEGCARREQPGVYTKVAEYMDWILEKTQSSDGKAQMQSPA
T1 sequence (P03952 20-390 partner limits assumed): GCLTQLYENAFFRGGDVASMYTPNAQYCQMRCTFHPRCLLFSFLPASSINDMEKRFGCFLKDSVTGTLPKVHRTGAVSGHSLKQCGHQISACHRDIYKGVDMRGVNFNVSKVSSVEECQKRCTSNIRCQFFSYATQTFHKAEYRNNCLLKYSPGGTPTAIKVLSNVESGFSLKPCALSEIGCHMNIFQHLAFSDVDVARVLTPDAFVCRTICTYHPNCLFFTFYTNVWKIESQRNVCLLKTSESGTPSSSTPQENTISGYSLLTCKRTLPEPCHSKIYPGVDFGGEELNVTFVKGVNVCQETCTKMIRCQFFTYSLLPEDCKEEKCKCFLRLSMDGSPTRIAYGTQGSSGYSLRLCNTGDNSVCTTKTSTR
human Factor XIa, sequence (P03951 388-625 limits assumed): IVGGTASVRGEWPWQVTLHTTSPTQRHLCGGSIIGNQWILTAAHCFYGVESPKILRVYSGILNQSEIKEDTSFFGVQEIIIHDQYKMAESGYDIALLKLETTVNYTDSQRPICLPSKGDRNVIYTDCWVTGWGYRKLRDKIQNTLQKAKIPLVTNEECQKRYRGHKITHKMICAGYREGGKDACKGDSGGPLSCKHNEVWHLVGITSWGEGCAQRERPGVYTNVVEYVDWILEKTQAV
human Factor XIa, sequence (P03951 19-387 partner limits assumed): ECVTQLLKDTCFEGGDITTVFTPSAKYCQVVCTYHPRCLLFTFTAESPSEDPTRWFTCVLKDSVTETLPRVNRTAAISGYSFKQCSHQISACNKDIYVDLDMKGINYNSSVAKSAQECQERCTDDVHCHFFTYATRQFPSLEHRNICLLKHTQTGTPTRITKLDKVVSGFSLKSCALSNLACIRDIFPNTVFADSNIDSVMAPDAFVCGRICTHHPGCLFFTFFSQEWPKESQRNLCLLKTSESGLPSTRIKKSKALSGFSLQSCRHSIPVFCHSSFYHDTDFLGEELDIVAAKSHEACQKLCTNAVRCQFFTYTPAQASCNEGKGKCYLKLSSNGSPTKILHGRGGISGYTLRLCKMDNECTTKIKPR

For orientation: IC50 means the concentration at which inhibition is half-maximal. As to `COC(=O)Nc1ccc2c(c1)NC(=O)C(C)(C)CCC[C@H](c1ccc(-c3cc(F)ccc3-n3cc(C(F)(F)F)cn3)c[n+]1[O-])c1nc-2c(C(=O)O)[nH]1` [Example 8, (R,Z)-2-(1^5-carboxy-2^4-((methoxycarbonyl)amino)-5,5-dimethyl-4-oxo-1^1H-3-aza-1(4,2)-imidazola-2(1,2)-benzenacyclononaphane-9-yl)-5-(5-fluoro-2-(4-(trifluoromethyl)-1H -pyrazol-1-yl)phenyl)pyridine 1-oxide], the IC50 was 0.39 nM in series [1] and 544 nM in series [2]. The solubility kinetic at 24 h in series [3] (setting [4]) amounted to 141 µM (≈ 102 µg/mL); in series [3] (setting [5]), 154 µM (≈ 111 µg/mL).
The corresponding values for `COC(=O)Nc1ccc2c(c1)NC(=O)C(C)(C)CCC[C@H](c1ccc(-c3cc(F)ccc3OC(F)F)c[n+]1[O-])c1nc-2c(C(=O)O)[nH]1.N` (single isomer, unassigned) [Example 7] are 0.16 nM, 4.4 nM, 170 µM and 145 µM.
Consider `COC(=O)Nc1ccc2c(c1)NC(=O)C(C)(C)CCC[C@H](c1ccc(-c3cccc(Cl)c3F)c[n+]1[O-])c1nc-2c(C(=O)O)[nH]1` [Example 9, (R,Z)-2-(1^5-carboxy-2^4-((methoxycarbonyl)amino)-5,5-dimethyl-4-oxo-1^1H-3-aza-1(4,2)-imidazola-2(1,2)-benzenacyclononaphane-9-yl)-5-(3-chloro-2-fluorophenyl)pyridine 1-oxide], for which the IC50 was 0.25 nM in series [1] and 1.1 nM in series [2]. Also, the solubility kinetic at 24 h in series [3] (setting [4]) amounted to 138 µM (≈ 85.8 µg/mL); in series [3] (setting [5]) it was 125 µM (≈ 77.8 µg/mL).
